Test results taken from patent US9181219B2, “Compounds of modulating TRPV3 function” (Hydra Biosciences, Inc., priority 2006, dated 2015).
Where two headings read alike, the source gives them in different places.

Key:
Format in all cases: cell-based
[1] = target: NaV1.2 (Homo sapiens (Human), UniProt Q99250); assay: Qpatch selectivity, NaV1.2 inward current; settings: tested at concentrations up to 30 μM, IC50 estimated
From the text: (§1) To determine whether compounds were selective for TRPV3 inhibition over inhibition of other ion channel types, the human ERG (hERG), NaV1.2, and TRPV1 (hTRPV1) channels and the rat TRPV6 (rTRPV6) channel were also stably transfected and expressed or induced to express in mammalian cell lines. The methods for measuring currents from these channels are well-established and have been described in numerous publications (See, Weerapura et al., 2002, J Physiology 540: 15-27; Rush et al., 2005, J Physiology 564: 808-815; Caterina et al., 1997, Nature 389: 816-824; Hoenderhop et al., 2001, J Physiology 537: 747-761; Clapham et al., 2003, Pharmacol Rev 55: 591-596). Compounds of interest were tested against these channels at concentrations up to 30 μM, and the resulting data were used to estimate IC50.

[2] = target: TRPV3 (Homo sapiens (Human), UniProt Q8NET8); assay: Whole-cell patch clamp of TRPV3 mediated inward current; settings: HEK293/TREx TRPV3 cells, approximate values
From the text: Whole-cell patch clamp experiments permit the detection of currents through the TRPV3 channel in the cell line described above. A glass electrode is brought into contact with a single cell and the membrane is then ruptured, permitting control of the voltage of the cell membrane and measurement of currents flowing across the membrane using the amplifier attached to the electrode. A perfusion system permits control of the extracellular solution, including the addition of blockers and activators of the current. The current can be activated by heating this solution to 28° C. or warmer or by addition of 20 μM 2-APB to the solution.
TRPV3 cells were induced 20-48 hours, removed from growth plates, and replated at low density (to attain good single-cell physical separation) on glass coverslips for measurement. In some cases, cells were grown in low density overnight on glass coverslips. Patch clamp recordings were made in the whole-cell mode with a holding potential of −40 mV. Every 5 seconds, a voltage ramp was applied from −120 to +100 mV, 400 ms in duration. Currents elicited were quantified at −80 mV and +80 mV. The internal solution consisted of 140 mM cesium aspartate, 10 mM EGTA, 2.27 mM MgCl2, 1.91 mM CaCl2 and 10 mM HEPES, pH to 7.2 with KOH; with 50 nM calculated free Ca^2+. External solution was Ringer's solution described above. Upon addition of 2-APB or upon heating of the extraceullar solution as described above, TRPV3 current was induced only in TRPV3-expressing cells and not in parental HEK293 TREx cells. […] Removal of the stimulus caused most of the current to go away, and inhibitor addition could still inhibit this current.
The data includes approximate IC50 values for inhibition of TRPV3 mediated inward current as assessed by patch-clamp.

[3] = target: TRPV1 (hTRPV1) (Homo sapiens (Human), UniProt Q8NER1); assay: Patch clamp selectivity, TRPV1 inward current; settings: tested at concentrations up to 30 μM, IC50 estimated
From the text: as §1

[4] = target: hERG (Homo sapiens (Human), UniProt Q12809); assay: Patch clamp selectivity, hERG current; settings: tested at concentrations up to 30 μM, IC50 estimated
From the text: as §1

[5] = Phase 1 inward current, read-out: TRPV3 Phase 1 IC50 inward
[6] = Phase 2 inward current, read-out: TRPV3 Phase 2 IC50 inward

Chain of NaV1.2 (Q99250 whole entry): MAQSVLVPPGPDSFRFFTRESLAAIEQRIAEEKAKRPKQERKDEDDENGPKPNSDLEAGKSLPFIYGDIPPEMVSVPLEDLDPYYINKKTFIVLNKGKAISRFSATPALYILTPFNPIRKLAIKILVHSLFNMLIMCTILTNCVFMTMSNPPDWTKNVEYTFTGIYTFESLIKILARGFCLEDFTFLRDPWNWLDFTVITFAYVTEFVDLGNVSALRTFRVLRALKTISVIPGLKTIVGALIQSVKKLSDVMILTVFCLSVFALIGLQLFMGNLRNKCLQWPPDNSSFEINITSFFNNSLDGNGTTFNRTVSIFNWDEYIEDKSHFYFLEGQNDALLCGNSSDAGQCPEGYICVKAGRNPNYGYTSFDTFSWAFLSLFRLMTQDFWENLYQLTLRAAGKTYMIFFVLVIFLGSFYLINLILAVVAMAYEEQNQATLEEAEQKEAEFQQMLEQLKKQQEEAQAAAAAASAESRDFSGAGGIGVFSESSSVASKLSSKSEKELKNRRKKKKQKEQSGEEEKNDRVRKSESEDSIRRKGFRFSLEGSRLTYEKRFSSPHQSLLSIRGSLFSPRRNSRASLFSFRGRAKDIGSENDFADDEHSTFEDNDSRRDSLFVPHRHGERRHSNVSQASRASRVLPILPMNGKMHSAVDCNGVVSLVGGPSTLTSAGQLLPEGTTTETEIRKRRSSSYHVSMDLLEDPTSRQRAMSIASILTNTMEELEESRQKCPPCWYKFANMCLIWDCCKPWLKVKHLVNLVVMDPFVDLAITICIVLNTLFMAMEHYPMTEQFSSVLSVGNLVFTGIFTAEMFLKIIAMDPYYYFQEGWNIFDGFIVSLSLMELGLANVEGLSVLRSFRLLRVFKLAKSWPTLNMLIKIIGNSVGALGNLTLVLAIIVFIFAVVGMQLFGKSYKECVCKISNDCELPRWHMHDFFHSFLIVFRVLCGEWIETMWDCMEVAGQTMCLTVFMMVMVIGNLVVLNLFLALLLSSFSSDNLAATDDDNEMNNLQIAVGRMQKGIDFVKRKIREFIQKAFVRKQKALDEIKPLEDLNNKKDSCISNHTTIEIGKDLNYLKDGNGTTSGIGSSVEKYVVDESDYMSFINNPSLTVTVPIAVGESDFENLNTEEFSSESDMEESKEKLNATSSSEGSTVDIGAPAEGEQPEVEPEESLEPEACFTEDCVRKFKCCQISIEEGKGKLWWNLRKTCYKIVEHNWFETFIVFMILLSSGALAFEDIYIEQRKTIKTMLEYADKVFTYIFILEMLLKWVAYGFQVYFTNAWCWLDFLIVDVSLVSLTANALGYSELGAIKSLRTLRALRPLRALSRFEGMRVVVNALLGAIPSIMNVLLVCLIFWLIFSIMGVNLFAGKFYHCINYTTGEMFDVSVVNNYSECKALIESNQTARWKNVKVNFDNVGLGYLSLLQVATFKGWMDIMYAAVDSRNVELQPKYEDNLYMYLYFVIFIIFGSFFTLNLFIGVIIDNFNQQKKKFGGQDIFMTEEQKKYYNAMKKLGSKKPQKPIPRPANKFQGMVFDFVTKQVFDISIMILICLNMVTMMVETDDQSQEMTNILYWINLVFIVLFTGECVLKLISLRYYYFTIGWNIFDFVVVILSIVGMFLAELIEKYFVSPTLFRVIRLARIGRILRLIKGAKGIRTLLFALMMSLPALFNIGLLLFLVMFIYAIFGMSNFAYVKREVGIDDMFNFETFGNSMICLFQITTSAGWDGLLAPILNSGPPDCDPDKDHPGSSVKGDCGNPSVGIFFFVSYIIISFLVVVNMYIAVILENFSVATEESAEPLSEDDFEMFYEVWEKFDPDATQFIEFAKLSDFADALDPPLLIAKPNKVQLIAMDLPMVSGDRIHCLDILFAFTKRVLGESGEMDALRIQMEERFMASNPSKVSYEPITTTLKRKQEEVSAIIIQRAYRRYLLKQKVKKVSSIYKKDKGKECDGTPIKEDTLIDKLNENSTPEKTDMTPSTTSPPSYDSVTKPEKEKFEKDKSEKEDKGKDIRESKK
Chain of hERG (Q12809 whole entry): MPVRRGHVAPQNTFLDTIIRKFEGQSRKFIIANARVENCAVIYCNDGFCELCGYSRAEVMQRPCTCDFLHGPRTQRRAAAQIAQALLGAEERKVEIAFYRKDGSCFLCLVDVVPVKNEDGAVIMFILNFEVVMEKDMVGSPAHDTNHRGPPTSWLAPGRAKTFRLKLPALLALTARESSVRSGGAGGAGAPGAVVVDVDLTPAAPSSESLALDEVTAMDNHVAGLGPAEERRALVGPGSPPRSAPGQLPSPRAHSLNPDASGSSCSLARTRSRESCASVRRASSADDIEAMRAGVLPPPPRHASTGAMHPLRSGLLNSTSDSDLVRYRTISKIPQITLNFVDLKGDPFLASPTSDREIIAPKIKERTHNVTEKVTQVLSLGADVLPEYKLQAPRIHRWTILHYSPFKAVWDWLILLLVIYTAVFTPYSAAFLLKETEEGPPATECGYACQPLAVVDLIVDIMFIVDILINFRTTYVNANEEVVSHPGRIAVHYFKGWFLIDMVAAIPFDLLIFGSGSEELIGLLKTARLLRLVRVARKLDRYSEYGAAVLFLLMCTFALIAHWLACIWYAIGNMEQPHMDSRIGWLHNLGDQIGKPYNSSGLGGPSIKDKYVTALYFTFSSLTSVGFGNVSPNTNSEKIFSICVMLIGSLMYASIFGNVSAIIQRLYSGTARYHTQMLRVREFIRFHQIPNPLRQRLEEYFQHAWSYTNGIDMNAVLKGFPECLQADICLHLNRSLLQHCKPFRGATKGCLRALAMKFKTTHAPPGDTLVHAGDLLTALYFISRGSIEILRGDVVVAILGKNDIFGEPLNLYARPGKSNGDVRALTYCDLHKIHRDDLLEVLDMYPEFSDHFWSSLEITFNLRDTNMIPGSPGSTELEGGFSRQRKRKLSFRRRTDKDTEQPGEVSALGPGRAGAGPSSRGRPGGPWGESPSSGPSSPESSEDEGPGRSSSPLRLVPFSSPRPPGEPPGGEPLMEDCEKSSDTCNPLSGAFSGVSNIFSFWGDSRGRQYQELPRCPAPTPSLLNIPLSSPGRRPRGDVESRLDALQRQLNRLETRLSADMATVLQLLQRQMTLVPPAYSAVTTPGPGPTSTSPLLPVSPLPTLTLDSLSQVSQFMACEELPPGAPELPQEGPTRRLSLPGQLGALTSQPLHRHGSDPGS
Chain of TRPV3 (Q8NET8 whole entry, species assumed, the tested form may be a part): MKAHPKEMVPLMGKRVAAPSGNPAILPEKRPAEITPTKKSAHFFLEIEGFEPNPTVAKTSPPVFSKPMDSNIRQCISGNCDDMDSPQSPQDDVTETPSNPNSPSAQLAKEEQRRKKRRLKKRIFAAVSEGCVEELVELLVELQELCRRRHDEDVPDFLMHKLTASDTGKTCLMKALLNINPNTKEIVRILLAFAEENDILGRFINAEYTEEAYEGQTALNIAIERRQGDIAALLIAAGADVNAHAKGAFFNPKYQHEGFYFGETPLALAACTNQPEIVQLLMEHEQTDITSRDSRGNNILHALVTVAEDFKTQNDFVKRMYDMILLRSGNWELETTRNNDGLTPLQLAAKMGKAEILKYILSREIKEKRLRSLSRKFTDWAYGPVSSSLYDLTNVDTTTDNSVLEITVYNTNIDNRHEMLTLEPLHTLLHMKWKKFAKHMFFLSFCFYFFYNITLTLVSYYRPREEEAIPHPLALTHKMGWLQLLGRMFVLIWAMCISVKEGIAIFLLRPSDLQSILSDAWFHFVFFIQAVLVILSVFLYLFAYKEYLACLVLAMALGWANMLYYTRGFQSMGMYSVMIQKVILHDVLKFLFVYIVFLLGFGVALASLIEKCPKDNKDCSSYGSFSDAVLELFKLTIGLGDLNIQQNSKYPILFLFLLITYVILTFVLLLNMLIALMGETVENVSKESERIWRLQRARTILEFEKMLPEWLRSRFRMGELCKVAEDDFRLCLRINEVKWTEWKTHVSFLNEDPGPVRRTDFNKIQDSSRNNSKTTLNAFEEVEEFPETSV
Chain of TRPV1 (hTRPV1) (Q8NER1 whole entry): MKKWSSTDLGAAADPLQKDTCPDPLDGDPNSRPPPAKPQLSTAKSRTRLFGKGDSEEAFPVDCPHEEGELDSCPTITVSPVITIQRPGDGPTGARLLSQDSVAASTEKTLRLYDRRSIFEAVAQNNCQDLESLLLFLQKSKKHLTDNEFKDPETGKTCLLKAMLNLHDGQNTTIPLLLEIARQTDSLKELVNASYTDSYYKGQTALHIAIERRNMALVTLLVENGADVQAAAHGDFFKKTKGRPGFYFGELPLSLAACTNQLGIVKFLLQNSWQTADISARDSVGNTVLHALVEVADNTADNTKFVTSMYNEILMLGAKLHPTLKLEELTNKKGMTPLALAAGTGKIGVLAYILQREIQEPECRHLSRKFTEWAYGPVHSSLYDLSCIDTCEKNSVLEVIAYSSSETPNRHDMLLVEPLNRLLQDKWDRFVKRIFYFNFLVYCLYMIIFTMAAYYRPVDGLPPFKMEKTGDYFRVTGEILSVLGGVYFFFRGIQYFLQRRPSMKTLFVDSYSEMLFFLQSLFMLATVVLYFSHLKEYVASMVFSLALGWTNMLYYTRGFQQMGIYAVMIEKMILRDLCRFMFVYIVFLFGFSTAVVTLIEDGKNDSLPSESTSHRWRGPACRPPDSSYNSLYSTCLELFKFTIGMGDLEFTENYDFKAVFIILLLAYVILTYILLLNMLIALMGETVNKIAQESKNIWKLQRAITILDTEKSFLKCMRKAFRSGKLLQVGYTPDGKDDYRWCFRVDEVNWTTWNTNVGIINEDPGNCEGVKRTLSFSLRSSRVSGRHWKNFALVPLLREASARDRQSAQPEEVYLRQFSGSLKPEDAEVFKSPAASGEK

| Structure (SMILES) | IC50 [1] [µM] | IC50 [2, 5] [µM] | IC50 [2, 6] [µM] | IC50 [3] [µM] | IC50 [4] [µM] |
| --- | --- | --- | --- | --- | --- |
| O=C(CSc1ccc(C(F)(F)F)cn1)N1CCCc2ccccc21 | ≥ 30 | ≤ 5 | ≤ 1 |  |  |
| Cc1cccc2c1N(C(=O)CSc1ccc(C#N)cn1)CCC2 |  | ≤ 10 | ≤ 5 |  |  |
| Cc1cccc2c1N(C(=O)CSc1ncc(C(F)(F)F)cc1F)CCC2 |  | ≤ 0.2 | ≤ 0.2 |  |  |
| Cc1cccc2c1N(C(=O)CSc1ccc(Br)cn1)CCC2 |  | ≤ 0.5 | ≤ 0.5 |  |  |
| COC(=O)c1cnc(SCC(=O)N2CCCc3cccc(C)c32)c(Cl)c1 |  | ≤ 5 | ≤ 5 |  |  |
| Cc1cccc2c1N(C(=O)CSc1ncc(Cl)cc1Cl)CCC2 |  | ≤ 0.2 | ≤ 0.2 |  |  |
| Cc1cccc2c1N(C(=O)CSc1cc(C#N)ccn1)CCC2 |  | ≤ 10 | ≤ 10 |  |  |
| Cc1cccc2c1N(C(=O)CSc1ncccc1C#N)CCC2 |  | ≤ 1 | ≤ 0.5 |  |  |
| COc1cccc2c1N(C(=O)CSc1ncccc1Cl)CCC2 |  | ≤ 0.5 | ≤ 0.5 |  |  |
| Cc1ccnc(SCC(=O)N2CCCc3cccc(C)c32)c1C |  | ≤ 5 | ≤ 1 |  |  |
| Cc1cnc(SCC(=O)N2CCCc3cccc(C)c32)cc1C |  | ≤ 0.2 | ≤ 0.2 |  |  |
| CCc1cc(C(F)(F)F)cnc1SCC(=O)N1CCCc2cccc(C)c21 |  | ≤ 5 | ≤ 5 |  |  |
| Cc1cccc2c1N(C(=O)CSc1ccc(C(F)(F)F)cn1)CCC2 [Compound 6, 2-(5-trifluoromethyl-pyridine-2-ylsulfanyl)-1-(8-methyl-3,4-dihydro-2H-quinolin-1-yl)-ethanone] | ≥ 30 | ≤ 0.5 | ≤ 0.2 | ≥ 20 | ≥ 30 |
| Cc1cccc2c1N(C(=O)CSc1ncccc1C(F)(F)F)CCC2 [Compound 8, 1-(8-methyl-3,4-dihydro-2H-quinolin-1-yl)-2-(3-trifluoromethyl-pyridin-2-ylsulfanyl)-ethanone] |  | ≤ 1 | ≤ 5 |  |  |
| Cc1cccc2c1N(C(=O)CSc1ncc(C(F)(F)F)cc1Cl)CCC2 [Compound 10, 2-(3-chloro-5-trifluoromethyl-pyridine-2-ylsulfanyl)-1-(8-methyl-3,4-dihydro-2H-quinolin-1-yl)-ethanone] |  | ≤ 0.2 | ≤ 0.5 |  |  |
| Cc1cccc2c1N(C(=O)CSc1ccccn1)CCC2 [Compound 12, 1-(8-methyl-3,4-dihydro-2H-quinolin-1-yl)-2-(pyridine-2-ylsulfanyl)-ethanone] |  | ≤ 5 | ≤ 10 |  |  |
| Cc1cccc2c1N(C(=O)CSc1ccc(Cl)cn1)CCC2 [Compound 16, 2-(5-Chloro-pyridin-2-ylsulfanyl)-1-(8-methyl-3,4-dihydro-2H-quinolin-1-yl)-ethanone] |  | ≤ 0.5 | ≤ 0.5 |  | ≥ 5 |
| Cc1cccc2c1N(C(=O)CSc1ncccc1Cl)CCC2 [Compound 20, 2-(3-chloro-pyridin-2-ylsulfanyl)-1-(8-methyl-3,4-dihydro-2H-quinolin-1-yl)-ethanone] | ≥ 30 | ≤ 0.2 | ≤ 1 |  | ≥ 10 |
| O=C(CSc1ccc(Cl)cn1)N1CCCc2ccccc21 [Compound 21, 2-(5-chloro-pyridine-2-ylthio)-1-(3,4-dihydroquinolin-1-(2H)-yl)-ethanone] |  | ≤ 5 | ≤ 5 |  |  |
| Cc1ccc(SCC(=O)N2CCCc3cccc(C)c32)nc1 [Compound 24, 1-(8-Methyl-3,4-dihydro-2H-quinolin-1-yl)-2-(5-methyl-pyridin-2-ylsulfanyl)-ethanone] |  | ≤ 5 | ≤ 10 |  |  |
